Results as given in patent US8461328B2, “Tricyclic heterocyclic compounds, compositions and methods of use thereof” (Genentech, Inc., priority 2010, dated 2013).
Where a name gives a salt, the structure may show the parent alone.

Columns and labels:
Type in all cases: biochemical
JAK1 = biological target: T1, JAK1 (Homo sapiens, UniProt P23458); assay: JAK1 inhibition (Table 4); conditions: read-out: JAK1 Ki
T1 construct: made in house; host or cells: SF9 insect cells (baculovirus)

TYK2 = biological target: T2, TYK2 (Homo sapiens, UniProt P29597); assay: TYK2 inhibition (Table 4)
T2 construct: made in house; host or cells: SF9 insect cells (baculovirus)
T2 sequence (P29597 873-1187): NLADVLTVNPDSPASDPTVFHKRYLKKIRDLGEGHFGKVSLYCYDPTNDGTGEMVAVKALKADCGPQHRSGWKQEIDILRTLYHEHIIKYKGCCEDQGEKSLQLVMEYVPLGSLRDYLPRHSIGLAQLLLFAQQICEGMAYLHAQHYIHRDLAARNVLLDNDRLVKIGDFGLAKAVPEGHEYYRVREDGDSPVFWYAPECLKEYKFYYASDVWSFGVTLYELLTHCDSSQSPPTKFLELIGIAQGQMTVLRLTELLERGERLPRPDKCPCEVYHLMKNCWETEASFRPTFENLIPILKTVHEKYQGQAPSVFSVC

JAK3 = biological target: T3, JAK3 (Homo sapiens, UniProt P52333); assay: JAK3 inhibition (Table 4); conditions: read-out: JAK3 Ki
T3 construct: made in house; host or cells: SF9 insect cells (baculovirus)

JAK2 = biological target: T4, JAK2 (Homo sapiens, UniProt O60674); assay: JAK2 inhibition (Table 4); conditions: read-out: JAK2 Ki
T4 construct: made in house; host or cells: SF9 insect cells (baculovirus)
T4 sequence (O60674 812-1132): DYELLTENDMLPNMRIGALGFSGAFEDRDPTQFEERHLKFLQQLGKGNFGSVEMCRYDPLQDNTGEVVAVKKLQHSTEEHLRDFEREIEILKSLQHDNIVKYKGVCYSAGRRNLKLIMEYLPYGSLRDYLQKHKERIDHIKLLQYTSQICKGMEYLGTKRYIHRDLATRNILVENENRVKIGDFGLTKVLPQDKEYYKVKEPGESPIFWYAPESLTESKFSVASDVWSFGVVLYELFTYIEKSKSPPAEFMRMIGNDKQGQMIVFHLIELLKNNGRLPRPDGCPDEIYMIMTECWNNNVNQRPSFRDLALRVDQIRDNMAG

T1 sequence (P23458 852-1154): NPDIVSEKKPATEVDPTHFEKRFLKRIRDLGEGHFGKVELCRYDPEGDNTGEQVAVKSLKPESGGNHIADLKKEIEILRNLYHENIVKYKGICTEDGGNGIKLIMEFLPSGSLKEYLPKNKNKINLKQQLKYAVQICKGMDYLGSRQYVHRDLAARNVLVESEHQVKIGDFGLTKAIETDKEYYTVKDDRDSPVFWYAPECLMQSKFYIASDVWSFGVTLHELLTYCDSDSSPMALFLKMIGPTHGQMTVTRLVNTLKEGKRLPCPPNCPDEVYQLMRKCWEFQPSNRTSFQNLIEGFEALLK
T3 sequence (P52333 783-1124): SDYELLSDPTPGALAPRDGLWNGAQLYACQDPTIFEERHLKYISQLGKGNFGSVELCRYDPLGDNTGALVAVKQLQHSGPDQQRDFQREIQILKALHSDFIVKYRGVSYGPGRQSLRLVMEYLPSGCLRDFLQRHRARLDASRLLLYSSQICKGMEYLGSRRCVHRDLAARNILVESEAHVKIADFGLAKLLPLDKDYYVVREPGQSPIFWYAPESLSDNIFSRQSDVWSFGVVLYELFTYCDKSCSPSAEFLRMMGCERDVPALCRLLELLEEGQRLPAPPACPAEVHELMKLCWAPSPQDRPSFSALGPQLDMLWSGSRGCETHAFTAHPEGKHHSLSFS

Row | SMILES | Ki (JAK1) [nM] | Ki (TYK2) [nM] | Ki (JAK3) [nM] | Ki (JAK2) [nM]
1 | Cc1nccn1Cc1nc2cnc3[nH]ccc3c2n1C1CCN(CCC#N)CC1 [Example 402, 3-{4-[2-(2-Methyl-imidazol-1-ylmethyl)-6H-1,3,5,6-tetraaza-as-indacen-1-yl]-piperidin-1-yl}-propionitrile] | 5.4 | 35.7 | 66.8 | 8.8
2 | Fc1cncc(CN2CCC(n3cnc4cnc5[nH]ccc5c43)CC2)c1 [Example 303, 1-[1-(5-Fluoro-pyridin-3-ylmethyl)-piperidin-4-yl]-1,6-dihydro-1,3,5,6-tetraaza-as-indacene] | 2.07 | 61.2 | 14.6 | 3.53
3 | CC(C)(O)c1nc2cnc3[nH]ccc3c2n1C1CCN(CCC#N)CC1 [Example 335, 3-{4-[2-(1-Hydroxy-1-methyl-ethyl)-6H-1,3,5,6-tetraaza-as-indacen-1-yl]-piperidin-1-yl}-propionitrile] | 31.2 | 944 | 67.6 | 127
4 | Cc1nc2cnc3[nH]ccc3c2n1[C@@H]1CCCN(C(=O)CC#N)C1 [Example 272] | 0.5 | 4.71 | 3.14 | 1.35
5 | CS(=O)(=O)N1CC[C@@H](n2cnc3cnc4[nH]ccc4c32)C1 [Example 190, 1-((R)-1-Methanesulfonyl-pyrrolidin-3-yl)-1,6-dihydro-1,2,3,5,6-tetraaza-as-indacene] | 62.7 | 114 | 59.2 | 67.4
6 | N#Cc1cccc(CNC2CC(n3cnc4cnc5[nH]ccc5c43)C2)c1 (stereo not shown) [Example 329, 3-{[3-(6H-1,3,5,6-Tetraaza-as-indacen-1-yl)-cyclobutylamino]-methyl}-benzonitrile] | 16.5 | 230 | 173 | 41.6
7 | Cc1nc2cnc3[nH]ccc3c2n1-c1ccc(C#N)cc1 [Example 183, 4-(2-Methyl-6H-1,2,3,5,6-tetraaza-as-indacen-1-yl)-benzonitrile] | 20.4 | 72.7 | 650 | 44.9
8 | N#CCCNC1CC(n2cnc3cnc4[nH]ccc4c32)C1 (stereo not shown) [Example 331, 3-[3-(6H-1,3,5,6-Tetraaza-as-indacen-1-yl)-cyclobutylamino]-propionitrile] | 6.08 | 45.8 | 64.4 | 16
9 | CN1CCC[C@H]1CN1CCC(n2cnc3cnc4[nH]ccc4c32)CC1 [Example 177, 1-[1-((S)-1-Methyl-pyrrolidin-2-ylmethyl)-piperidin-4-yl]-1,6-dihydro-1,2,3,5,6-tetraaza-as-indacene] | 42 | 519 | 1400 | 144
10 | N#CCCN1CCC(n2c(CCNS(=O)(=O)C3CC3)nc3cnc4[nH]ccc4c32)CC1 [Example 370, Cyclopropanesulfonic acid (2-{1-[1-(2-cyano-ethyl)-piperidin-4-yl]-1,6-dihydro-1,3,5,6-tetraaza-as-indacen-2-yl}-ethyl)-amide] | 2.95 | 77.9 | 27.8 | 16.7
11 | CN(Cc1nc2cnc3[nH]ccc3c2n1C1CCN(Cc2ccccc2)CC1)S(C)(=O)=O [Example 203, N-[1-(1-Benzyl-piperidin-4-yl)-1,6-dihydro-1,2,3,5,6-tetraaza-as-indacen-2-ylmethyl]-N-methyl-methanesulfonamide] | 19.6 | 258 | 104 | 145
12 | CC(C)(C)OC(=O)N1CCC(C)(n2cnc3cnc4[nH]ccc4c32)CC1 [Example 132, 4-Methyl-4-(6H-1,2,3,5,6-tetraaza-as-indacen-1-yl)-piperidine-1-carboxylic acid tert-butyl ester] | 25.4 | 696 | 1120 | 193

Now from value to compound:

Row | Ki (JAK1) [nM] | Ki (TYK2) [nM] | Ki (JAK3) [nM] | Ki (JAK2) [nM] | SMILES
13 | 7.08 | 352 | 213 | 128 | CCN1CC[C@@H](n2c(CNS(C)(=O)=O)nc3cnc4[nH]ccc4c32)[C@@H](F)C1 [Example 909, N-[1-((3S,4R)-1-Ethyl-3-fluoro-piperidin-4-yl)-1,6-dihydro-1,3,5,6-tetraaza-as-indacen-2-ylmethyl]-methanesulfonamide]
14 | 1.43 | 156 | 12.1 | 9.65 | CS(=O)(=O)NCc1nc2cnc3[nH]ccc3c2n1C1CCN(Cc2ccccc2)CC1(F)F (racemic) [Example 946, N-[1-(1-Benzyl-3,3-difluoro-piperidin-4-yl)-1,6-dihydro-1,3,5,6-tetraaza-as-indacen-2-ylmethyl]-methanesulfonamide]
15 | 3.45 | 21.9 | 10.1 | 6.24 | Cc1nc2cnc3[nH]ccc3c2n1C1CCc2[nH]ncc2C1 (racemic) [Example 486, 2-Methyl-1-(4,5,6,7-tetrahydro-1H-indazol-5-yl)-1,6-dihydro-1,3,5,6-tetraaza-as-indacene]
16 | 62.3 | 635 | 104 | 102 | N#CCCN1CCC(n2c(COCC3CCC3)nc3cnc4[nH]ccc4c32)CC1 [Example 840, 3-[4-(2-Cyclobutylmethoxymethyl-6H-1,3,5,6-tetraaza-as-indacen-1-yl)-piperidin-1-yl]-propionitrile]
17 | 7.07 | 149 | 119 | 148 | CCN1CC[C@@H](n2c([C@@H](C)O)nc3cnc4[nH]ccc4c32)[C@@H](F)C1 [Example 868, (R)-1-[1-((3S,4R)-1-Ethyl-3-fluoro-piperidin-4-yl)-1,6-dihydro-1,3,5,6-tetraaza-as-indacen-2-yl]-ethanol]
18 | 14.6 | 420 | 37.7 | 77 | CN(C)c1nc2cnc3[nH]ccc3c2n1C1CCN(CCC#N)CC1 [Example 656, 3-[4-(2-Dimethylamino-6H-1,2,3,5,6-tetraaza-as-indacen-1-yl)-piperidin-1-yl]-propionitrile]
19 | 102 | 1050 | 592 | 364 | CC1(n2nnc3cnc4[nH]ccc4c32)CCN(CCC#N)CC1 [Example 582, 3-[4-Methyl-4-(6H-1,2,3,5,6-pentaaza-as-indacen-1-yl)-piperidin-1-yl]-propionitrile]
20 | 15.3 | 114 | 29.7 | 44.9 | O[C@H]1CC[C@H](n2cnc3cnc4[nH]ccc4c32)C1 [Example 712, (1S,3S)-3-(6H-1,2,3,5,6-Tetraaza-as-indacen-1-yl)-cyclopentanol]
21 | 138 | 1440 | 942 | 446 | COCCNC1CCC(n2nnc3cnc4[nH]ccc4c32)C1 (racemic) [Example 618, Racemic trans (2-methoxy-ethyl)-[3-(6H-1,2,3,5,6-pentaaza-as-indacen-1-yl)-cyclopentyl]-amine hydrochloride]
22 | 51.8 | 119 | 273 | 271 | CC(O)c1nc2cnc3[nH]ccc3c2n1C1CC2CCC1O2 (stereo not shown) [Example 906, 1-[1-(7-Oxa-bicyclo[2.2.1]hept-2-yl)-1,6-dihydro-1,3,5,6-tetraaza-as-indacen-2-yl]-ethanol]
23 | 3.8 | 4.4 | 165 | 21.9 | CO[C@H]1CC[C@H](n2c(CO)nc3cnc4[nH]ccc4c32)CC1 [Example 634, Trans[1-(4-Methoxy-cyclohexyl)-1,6-dihydro-1,2,3,5,6-tetraaza-as-indacen-2-yl]-methanol]
24 | 23.5 | 254 | 191 | 91.8 | CCc1nccn1CCc1nc2cnc3[nH]ccc3c2n1C1CCN(CCC#N)CC1 [Example 815, 3-(4-{2-[2-(2-Ethyl-imidazol-1-yl)-ethyl]-6H-1,3,5,6-tetraaza-as-indacen-1-yl}-piperidin-1-yl)-propionitrile]
25 | 79.9 | 587 | 884 | 740 | CC(O)c1nc2cnc3[nH]ccc3c2n1C1CCCN(C(=O)C2CC2(F)F)C1 (stereo not shown) [Example 790, (2,2-Difluoro-cyclopropyl)-{3-[2-(1-hydroxy-ethyl)-6H-1,3,5,6-tetraaza-as-indacen-1-yl]-piperidin-1-yl}-methanone]
26 | 8.36 | 76.5 | 313 | 17.3 | c1cc2c(ncc3nnn(C4CCCOC4)c32)[nH]1 (single isomer, unassigned) [Example 460, 1-(Tetrahydro-pyran-3-yl)-1,6-dihydro-1,2,3,5,6-pentaaza-as-indacene]
27 | 3.41 | 179 | 17.9 | 21.2 | CCN1CCC(n2c(CCNS(C)(=O)=O)nc3cnc4[nH]ccc4c32)C(F)(F)C1 (single isomer, unassigned) [Example 806, N-{2-[1-(1-Ethyl-3,3-difluoro-piperidin-4-yl)-1,6-dihydro-1,3,5,6-tetraaza-as-indacen-2-yl]-ethyl}-methanesulfonamide]
28 | 39.4 | 602 | 1670 | 205 | C[C@@H](O)c1nc2cnc3[nH]ccc3c2n1C1CCN(C2(CC#N)COC2)CC1 [Example 861, (3-{4-[2-((R)-1-Hydroxy-ethyl)-6H-1,3,5,6-tetraaza-as-indacen-1-yl]-piperidin-1-yl}-oxetan-3-yl)-acetonitrile]
